According to patent US11155612B2, “vNAR antibody which binds VEGF for use in dogs or cats” (CENTRO DE INVESTIGACIÓN CIENTÍFICA Y DE EDUCACIÓN SUPERIOR …, priority 2017, dated 2021):

System: human umbilical vein endothelial cells (HUVEC) expressing GFP and normal human dermal fibroblasts (NHDF)
Experiment: Angiogenesis assay (vascular tube formation, HUVEC/NHDF co-culture)
Format: cell-based
Settings: VEGF 4 ng/ml; 100 μM suramin positive control
Experimental: In the vascular tube formation assay, a co-culture system of human umbilical vein endothelial cells (HUVEC) expressing GFP and normal human dermal fibroblasts (NHDF) was used. For cell seeding on day 0, one cryogenic vial of NHDF cells was thawed and resuspended in 12 ml of complete seeding medium. Then, 100 μl of this solution was added per well of a 96-well plate. The cells were incubated at room temperature for 1 hour. Then, 1 cryogenic vial of HUVECs was thawed and resuspended in 12 ml of complete seeding medium. HUVEC (100 μL per well) were seeded into the same plate as NHDFs. The cells were incubated at room temperature for another hour. The plate was then examined in an IncuCyte ZOOM and scanned using the “FOIL” scan type. After 24 hours, the culture medium was replaced with 150 μl of growth medium.
Forty-eight hours after seeding, the cells were treated with VEGF at 4 ng/ml and the test compounds at eight concentrations.
Serial dilutions of the compounds were prepared using assay media containing VEGF up to the final concentrations in FIG. 3. Then, 150 μl of medium containing the vNARs were added. In untreated wells, media without VEGF were added. For wells without compound, media with VEGF was added. […]
The formation of vessel tubes by fluorescently-labeled HUVECs was measured using live-cell imaging, and the effects of the vNARs on this process were assessed.

## Cc1ccc(C(=O)Nc2ccc(S(=O)(=O)O)c3cc(S(=O)(=O)O)cc(S(=O)(=O)O)c23)cc1NC(=O)c1cccc(NC(=O)Nc2cccc(C(=O)Nc3cc(C(=O)Nc4ccc(S(=O)(=O)O)c5cc(S(=O)(=O)O)cc(S(=O)(=O)O)c45)ccc3C)c2)c1 [suramin, reference compound]
  inhibition of VEGF-increased tube branching: inhibited
